This note sets out measurements from patent US9663528B2, “Substituted 1,2,3,4,6,8,12,12a-octahydro-1,4-methanodipyrido[1,2-a:1',2'-d]pyrazines and methods for treating viral infections” (priority 2012, dated 2017).

Like-named read-outs stand apart in the source and are kept apart here.

One may read the Emax as the size of the effect at its maximum, as opposed to the concentration needed.

Series [1] can be described thus: Cytotoxicity (CC50) in MT-4 cells, mock-infected, CellTiter-Glo. The conditions noted are these: human. The method, then:
For the antiviral assay utilizing MT4 cells, 0.4 μL of […] test concentration of 3-fold serially diluted compound in DMSO was added to 40 μL of cell growth medium (RPMI 1640, 10% FBS, 1% penicilline/Streptomycine, 1% L-Glutamine, 1% HEPES) in each well of 384-well assay plates (10 concentrations) in quidruplicate.
1 mL aliquots of 2×10^6 MT4 cells are pre-infected for 1 and 3 hours respectively at 37° C. with 25 μL (MT4) or of either cell growth medium (mock-infected) or a fresh 1:250 dilution of an HIV-IIIb concentrated ABI stock (0.004 m.o.i. for MT4 cells). Infected and uninfected cells are diluted in cell growth medium and 35 μL of 2000 (for MT4) cells is added to each well of the assay plates.
Assay plates were then incubated in a 37° C. incubator. After 5 days of incubation, 25 μL of 2× concentrated CellTiter-Glo™ Reagent (catalog #G7573, Promega Biosciences, Inc., Madison, Wis.) was added to each well of the assay plate. Cell lysis was carried out by incubating at room temperature for 2-3 minutes, and then chemiluminescence was read using the Envision reader (PerkinElmer).

Another series deals with PXR (Homo sapiens (Human), UniProt O75469). Kind of series: Human PXR activation assay (luciferase reporter gene assay, DPX2 cells). In kind it is cell-based. The conditions noted are these: human. The method, then: A stably transformed tumor cell line (DPX2) was plated on 96-well microtiter plates. DPX2 cells harbor the human PXR gene (NR112) and a luciferase reporter gene linked to two promoters identified in the human CYP3A4 gene, namely XREM and PXRE. […] The number of viable cells was determined and the reporter gene activity was assessed. Positive control: […]
Sequence of PXR (O75469 whole entry): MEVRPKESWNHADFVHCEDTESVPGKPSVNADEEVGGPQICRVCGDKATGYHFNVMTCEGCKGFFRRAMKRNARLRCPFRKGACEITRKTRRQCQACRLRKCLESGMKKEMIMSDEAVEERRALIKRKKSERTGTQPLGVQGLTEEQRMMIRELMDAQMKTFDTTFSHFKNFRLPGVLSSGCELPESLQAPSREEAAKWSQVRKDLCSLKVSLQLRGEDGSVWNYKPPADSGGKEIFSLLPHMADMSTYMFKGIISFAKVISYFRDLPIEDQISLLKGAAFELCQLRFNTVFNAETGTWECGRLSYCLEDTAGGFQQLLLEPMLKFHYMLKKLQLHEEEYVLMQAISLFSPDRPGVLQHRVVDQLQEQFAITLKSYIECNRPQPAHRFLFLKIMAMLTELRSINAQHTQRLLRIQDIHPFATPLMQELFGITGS
Background: A reporter such as luciferase makes a cellular process visible.

Where [2] appears, read: MT-4 cells, mock-infected, CC50 nM in MT-4, MT-4 cells, 5 days incubation.
The mark [3] stands for this setting: 15 μM, relative to maximum fold induction by 10 or 20 μM rifampicin, DPX2 cells, 24 hours, read-out: % Emax at 15 μM.

Turning to `O=C(NCc1c(F)cc(F)cc1F)c1cn2c(c(O)c1=O)C(=O)N1[C@H]3C[C@H](C3)[C@@H]1C2` (single isomer, unassigned) [Compound 97], the CC50 at 5 days in series [1] (setting [2]) amounted to 17300 nM. Further, the Emax at 24 h, 15 µM on PXR (setting [3]) amounted to 9%.

With `O=C(NCc1ccc(F)cc1F)c1cn2c(c(O)c1=O)C(=O)N1C(C2)[C@H]2CC[C@@H]1C2` (stereo in doubt) [Compound 38, (1S,4R,12aR)-N-(2,4-difluorobenzyl)-7-hydroxy-6,8-dioxo-1,2,3,4,6,8,12,12a-octahydro-1,4-methanodipyrido[1,2-a:1′,2′-d]pyrazine-9-carboxamide], in series [1] (CC50 nM in MT-4), the CC50 at 5 days is 10200 nM. On PXR (setting [3]), the maximal effect (Emax) at 24 h, 15 µM came out at 7%.

In series [1] (CC50 nM in MT-4), `O=C(NCc1c(F)cc(F)cc1F)c1cn2c(c(O)c1=O)C(=O)N1[C@H]3CC(F)C(C3)[C@@H]1C2` (stereo in doubt) [Compound 56, (1R,2S,4R,12aR)-2-fluoro-7-hydroxy-6,8-dioxo-N-(2,4,6-trifluorobenzyl)-1,2,3,4,6,8,12,12a-octahydro-1,4-methanodipyrido[1,2-a:1′,2′-d]pyrazine-9-carboxamide] displayed a CC50 at 5 days of 17200 nM. The same molecule displayed an Emax at 24 h, 15 µM at PXR of 3%.

Turning to `O=C(NCc1ccc(F)cc1F)c1cn2c(c(O)c1=O)C(=O)N1C(C2)[N@@]2CC[C@@H]1C2` (stereo partly drawn) [Compound 4, (1S,4R)-N-(2,4-difluorobenzyl)-7-hydroxy-6,8-dioxo-3,4,6,8,12,12a-hexahydro-2H-1,4-methanopyrido[1′,2′:4,5]pyrazino[1,2-a]pyrimidine-9-carboxamide], the CC50 at 5 days in series [1] (CC50 nM in MT-4) was 45800 nM. On PXR, the maximal response (Emax) at 24 h, 15 µM is 3%.

As to `O=C(NCc1ccc(F)cc1F)c1cn2c(c(O)c1=O)C(=O)N1C(C2)[N@]2CC[C@H]1C2` (stereo partly drawn) [Compound 6, (1R,4S)-N-(2,4-difluorobenzyl)-7-hydroxy-6,8-dioxo-3,4,6,8,12,12a-hexahydro-2H-1,4-methanopyrido[1′,2′:4,5]pyrazino[1,2-a]pyrimidine-9-carboxamide], the Emax at 24 h, 15 µM on PXR was 0%.

The molecule `C[C@@H](NC(=O)c1cn2c(c(O)c1=O)C(=O)N1[C@H]3CC[C@H](C3)O[C@@H]1C2)c1ccc(F)cc1` [Compound 10, (2R,5S,13aR)-N—((R)-1-(4-fluorophenyl)ethyl)-8-hydroxy-7,9-dioxo-2,3,4,5,7,9,13,13a-octahydro-2,5-methanopyrido[1′,2′:4,5]pyrazino[2,1-b][1,3]oxazepine-10-carboxamide] registered a CC50 at 5 days in series [1] (CC50 nM in MT-4) of 3670 nM. This molecule also had a maximal response (Emax) at 24 h, 15 µM at PXR of 19%.

In turn, `O=C(NCc1ccc(F)cc1)c1cn2c(c(O)c1=O)C(=O)N1[C@@H]3CC[C@@H](C3)O[C@H]1C2` [Compound 15, (2S,5R,13aS)-N-(4-fluorobenzyl)-8-hydroxy-7,9-dioxo-2,3,4,5,7,9,13,13a-octahydro-2,5-methanopyrido[1′,2′:4,5]pyrazino[2,1-b][1,3]oxazepine-10-carboxamide] registered a CC50 at 5 days in series [1] (CC50 nM in MT-4) of 16300 nM. For the same molecule, the Emax at 24 h, 15 µM at PXR is 20%.

Turning to `O=C(NCc1cccc(F)c1F)c1cn2c(c(O)c1=O)C(=O)N1[C@@H]3CC[C@@H](C3)O[C@H]1C2` [Compound 16, (2S,5R,13aS)-N-(2,3-difluorobenzyl)-8-hydroxy-7,9-dioxo-2,3,4,5,7,9,13,13a-octahydro-2,5-methanopyrido[1′,2′:4,5]pyrazino[2,1-b][1,3]oxazepine-10-carboxamide], the CC50 at 5 days in series [1] (CC50 nM in MT-4) came to 13600 nM. The same molecule returned a maximal effect (Emax) at 24 h, 15 µM on PXR of 17%.

With `O=C(NCc1ccc(Cl)cc1F)c1cn2c(c(O)c1=O)C(=O)N1[C@@H]3CC[C@@H](C3)O[C@H]1C2` [Compound 17, (2S,5R,13aS)-N-(4-chloro-2-fluorobenzyl)-8-hydroxy-7,9-dioxo-2,3,4,5,7,9,13,13a-octahydro-2,5-methanopyrido[1′,2′:4,5]pyrazino[2,1-b][1,3]oxazepine-10-carboxamide], in series [1] (CC50 nM in MT-4), the CC50 at 5 days came to 6610 nM. The molecule also showed an Emax at 24 h, 15 µM at PXR of 7%.

In the case of `O=C(NCc1ccc(F)c(F)c1)c1cn2c(c(O)c1=O)C(=O)N1[C@@H]3CC[C@@H](C3)O[C@H]1C2` [Compound 18, (2S,5R,13aS)-N-(3,4-difluorobenzyl)-8-hydroxy-7,9-dioxo-2,3,4,5,7,9,13,13a-octahydro-2,5-methanopyrido[1′,2′:4,5]pyrazino[2,1-b][1,3]oxazepine-10-carboxamide], in series [1] (CC50 nM in MT-4), the CC50 at 5 days came out at 10300 nM. For the same molecule, the Emax at 24 h, 15 µM at PXR amounted to 4%.

The molecule `O=C(NCc1ccc(F)cc1F)c1cn2c(c(O)c1=O)C(=O)N1C(C2)[N@]2CCC[C@H]1C2` (stereo partly drawn) [Compound 19, (1R,5S)-N-(2,4-difluorobenzyl)-8-hydroxy-7,9-dioxo-2,3,4,5,7,9, 13,13a-octahydro-1,5-methanopyrido[1′,2′:4,5]pyrazino[1,2-a][1,3]diazepine-10-carboxamide] returned a CC50 at 5 days in series [1] (CC50 nM in MT-4) of 38700 nM. In addition, on PXR, the maximal effect (Emax) at 24 h, 15 µM was 2%.

Take `O=C(NCc1ccc(F)cc1F)c1cn2c(c(O)c1=O)C(=O)N1C(C2)[N@@]2CCC[C@@H]1C2` (stereo partly drawn) [Compound 20, (1S,5R)-N-(2,4-difluorobenzyl)-8-hydroxy-7,9-dioxo-2,3,4,5,7,9,13,13a-octahydro-1,5-methanopyrido[1′,2′:4,5]pyrazino[1,2-a][1,3]diazepine-10-carboxamide]: the CC50 at 5 days in series [1] (CC50 nM in MT-4) is 28000 nM. This molecule showed a maximal effect (Emax) at 24 h, 15 µM at PXR of 2%.

With `O=C(NCc1ccccc1F)c1cn2c(c(O)c1=O)C(=O)N1[C@@H]3CC[C@@H](C3)O[C@H]1C2` [Compound 23, (2S,5R,13aS)-N-(2-fluorobenzyl)-8-hydroxy-7,9-dioxo-2,3,4,5,7,9,13,13a-octahydro-2,5-methanopyrido[1′,2′:4,5]pyrazino[2,1-b][1,3]oxazepine-10-carboxamide], the CC50 at 5 days in series [1] (CC50 nM in MT-4) came out at 13400 nM. In addition, the Emax at 24 h, 15 µM on PXR is 45%.

Molecule `O=C(NC1(c2ccc(F)cc2F)CC1)c1cn2c(c(O)c1=O)C(=O)N1C(C2)O[C@H]2CCC[C@@H]1C2` (stereo partly drawn) [Compound 28, (2S,6R)-N-(1-(2,4-difluorophenyl)cyclopropyl)-9-hydroxy-8,10-dioxo-3,4,5,6,8,10,14,14a-octahydro-2H-2,6-methanopyrido[1′,2′:4,5]pyrazino[2,1-b][1,3]oxazocine-11-carboxamide] returned a CC50 at 5 days in series [1] (CC50 nM in MT-4) of 18700 nM. This molecule registered a maximal response (Emax) at 24 h, 15 µM on PXR of 6%.

With `O=C(NC1(c2ccc(F)cc2F)CC1)c1cn2c(c(O)c1=O)C(=O)N1C(C2)O[C@@H]2CCC[C@H]1C2` (stereo partly drawn) [Compound 29, (2R,6S)-N-(1-(2,4-difluorophenyl)cyclopropyl)-9-hydroxy-8,10-dioxo-3,4,5,6,8,10,14,14a-octahydro-2H-2,6-methanopyrido[1′,2′:4,5]pyrazino[2,1-b][1,3]oxazocine-11-carboxamide], in series [1] (CC50 nM in MT-4), the CC50 at 5 days stood at 9450 nM. In addition, on PXR, the maximal response (Emax) at 24 h, 15 µM was determined as 3%.

In series [1] (CC50 nM in MT-4), `O=C(NC1(c2ccc(F)cc2F)CCC1)c1cn2c(c(O)c1=O)C(=O)N1C(C2)O[C@H]2CC[C@@H]1C2` (stereo partly drawn) [Compound 32, (2S,5R)-N-(1-(2,4-difluorophenyl)cyclobutyl)-8-hydroxy-7,9-dioxo-2,3,4,5,7,9,13,13a-octahydro-2,5-methanopyrido[1′,2′:4,5]pyrazino[2,1-b][1,3]oxazepine-10-carboxamide] came in with a CC50 at 5 days of 4680 nM. Moreover, the Emax at 24 h, 15 µM at PXR came to 14%.

On to `O=C(NC1(c2ccc(F)cc2F)CCCC1)c1cn2c(c(O)c1=O)C(=O)N1C(C2)O[C@H]2CC[C@@H]1C2` (stereo partly drawn) [Compound 33, (2S,5R)-N-(1-(2,4-difluorophenyl)cyclopentyl)-8-hydroxy-7,9-dioxo-2,3,4,5,7,9,13,13a-octahydro-2,5-methanopyrido[1′,2′:4,5]pyrazino[2,1-b][1,3]oxazepine-10-carboxamide], for which the CC50 at 5 days in series [1] (CC50 nM in MT-4) is 3970 nM. At PXR, this molecule yielded a maximal effect (Emax) at 24 h, 15 µM of 17%.

As for `C[C@H]1CO[C@@H]2Cn3cc(C(=O)NC4(c5ccc(F)cc5F)CC4)c(=O)c(O)c3C(=O)N12` [Compound 37, (3S,11aR)-N-(1-(2,4-difluorophenyl)cyclopropyl)-6-hydroxy-3-methyl-5,7-dioxo-2,3,5,7,11,11a-hexahydrooxazolo[3,2-a]pyrido[1,2-d]pyrazine-8-carboxamide], the CC50 at 5 days in series [1] (setting [2]) turned out to be 19500 nM. Also, the Emax at 24 h, 15 µM at PXR (setting [3]) was 2%.

`C[C@@H](NC(=O)c1cn2c(c(O)c1=O)C(=O)N1[C@H]3CC[C@H](C3)[C@@H]1C2)c1ccc(F)cc1F` [Compound 43, (12aR)-N—((R)-1-(2,4-difluorophenyl)ethyl)-7-hydroxy-6,8-dioxo-1,2,3,4,6,8,12,12a-octahydro-1,4-methanodipyrido[1,2-a:1′,2′-d]pyrazine-9-carboxamide] displayed a CC50 at 5 days in series [1] (CC50 nM in MT-4) of 10300 nM. Besides, on PXR, the Emax at 24 h, 15 µM was found to be 18%.

For the molecule `O=C(NCc1ccc(F)c(F)c1F)c1cn2c(c(O)c1=O)C(=O)N1[C@@H]3CC[C@@H](C3)O[C@H]1C2` [Compound 44, (13aS)-8-hydroxy-7,9-dioxo-N-(2,3,4-trifluorobenzyl)-2,3,4,5,7,9,13,13a-octahydro-2,5-methanopyrido[1′,2′:4,5]pyrazino[2,1-b][1,3]oxazepine-10-carboxamide], the CC50 at 5 days in series [1] (CC50 nM in MT-4) was determined as 9870 nM. This molecule returned an Emax at 24 h, 15 µM on PXR of 4%.
